Test in all cases: NCI tumour cell line growth inhibition, 48 h
The test system of assay [1] is BT-549 breast.
Assay [2] deals with COLO 205 colon.
Assay [3] concerns HCT-15 colon.
In assay [4] the test system is LOX IMVI melanoma.
In assay [5] the test system is MCF7 breast.
Assay [6] has as its system SN12C renal.
In assay [7] the test system is SR leukemia.
Assay [8] concerns U251 CNS.
Assay [9] relates to UACC-62 melanoma.
Assay [10] relates to HT29 colon.

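Exposure lasted 48 hours, with cells grown in 96-well plates and compounds tested at five concentrations. TGI denotes the concentration required for complete inhibition of growth.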

Regarding `CC(C)CC(NC(=O)C(COc1ccc([N+](=O)[O-])cc1)Cc1ccccc1)C(=O)Nc1ccccc1` (centres undefined), the TGI was 29.7 µM in assay [1]; > 100 µM in assay [2]; > 100 µM in assay [3]; > 100 µM in [4]; > 100 µM in assay [5]; > 100 µM in [6]. The values for the TGI in assay [7], in [8] and in assay [9] were > 100 µM, 28.7 µM and 30.9 µM, respectively.
Consider `COc1ccc(C(C)NNC(=O)c2ccncc2)cc1F` (centres undefined), for which the TGI in assay [1], in assay [2], in [3], in assay [10], in assay [4] and in [5] was > 100 µM throughout. Besides, the TGI in [6], in assay [7], in assay [8] and in assay [9] was > 100 µM in each case.
Consider `Cc1nn(-c2ccccn2)c2c1C(SC#N)=C(C=O)CC2`, for which the TGI in assay [1] worked out at 38.9 µM; in [2], 22.2 µM; in [3] it was 34 µM; in [10], 47 µM; in assay [4] it was 29.1 µM; in assay [5] it was 24.2 µM. Besides, the TGI came out at 40.3 µM in assay [6], 34.3 µM in assay [7], 28.8 µM in [8] and 18.3 µM in [9].
As for `N#Cc1c(C#N)c(-c2ccccc2)n(/N=C\c2ccccc2)c1N`, the TGI was > 100 µM in [1]; 72 µM in [2]; > 100 µM in assay [3]; 83.1 µM in assay [10]; 32.8 µM in assay [4]; > 100 µM in assay [5]. In addition, the TGI in assay [6] was > 100 µM; in assay [7], 82.9 µM; in assay [8], 47.4 µM; in assay [9], 41.5 µM.
For `CCOC(=O)c1cn(C)nc1N/C(C)=C\C(=O)c1ccccc1`, the TGI in assay [1], in [2], in assay [3], in [10], in [4] and in assay [5] was > 100 µM each time. Further, the TGI in assay [6], in assay [7], in assay [8] and in assay [9] was > 100 µM each time.
Turning to `O=C(NCc1ccccc1)c1c(O)c2ccccc2[nH]c1=O`, the TGI in [1], in assay [2], in assay [3], in assay [10], in assay [4] and in assay [5] was > 100 µM throughout. In addition, the TGI in [6], in assay [7] and in assay [8] was > 100 µM throughout.
On to `COC(=O)C1[C@H](C(=O)OC)C1(Br)CBr` (some centres undefined), for which the TGI in assay [1], in [2], in assay [3], in assay [10], in assay [4] and in assay [5] was > 100 µM in each case. In addition, the TGI in assay [6], in assay [7], in [8] and in [9] was > 100 µM each time.
As to `COc1ccccc1N1C(=O)/C(=C\c2cccc(Oc3ccccc3)c2)S(=O)(=O)C1c1ccccc1` (centres undefined), the TGI is 83.6 µM in assay [1]; 88.3 µM in assay [2]; > 100 µM in assay [3]; > 100 µM in assay [4]; > 100 µM in assay [5]; > 100 µM in assay [6]. Besides, the TGI in [7] was 56.2 µM; in assay [8] it was > 100 µM; in assay [9], > 100 µM.
Regarding `CCCC(=O)OC1CC(n2cc(F)c(=O)[nH]c2=O)OC1CO` (centres undefined), the TGI in assay [1], in assay [2], in assay [3], in [10], in assay [4] and in [5] was > 10 µM each time. The TGI in assay [6], in assay [7], in assay [8] and in assay [9] was > 10 µM throughout.
Take `COc1cc(-c2[o+]c3cc(O)cc(OC4OC(CO)C(O)C(O)C4O)c3cc2OC2OC(CO)C(O)C(O)C2O)cc(OC)c1O` (centres undefined): the TGI in assay [1], in assay [2], in assay [3], in assay [10], in [4] and in assay [5] was > 100 µM each time. For the same molecule, the TGI in assay [6], in [7], in assay [8] and in assay [9] was > 100 µM throughout.
For `Cc1nnc2sc(-c3ccc([N+](=O)[O-])o3)nn12`, the TGI in assay [1] worked out at 22.5 µM; in assay [2], 27.5 µM; in assay [3], 18.2 µM; in [10] it was 34.7 µM; in assay [4], 16.1 µM; in assay [5], 26.5 µM. In addition, the TGI in [6] stood at 29.5 µM; in assay [7], 59.6 µM; in [8], 27.9 µM; in assay [9], 22.1 µM.
`COC(=O)C(C(=O)OC)C1CC(=O)c2c(Br)sc(Br)c21` (centres undefined): the TGI is 35.7 µM in assay [1]; 28.5 µM in assay [2]; 21.6 µM in assay [3]; 32.9 µM in [10]; 26.7 µM in assay [4]; 73.2 µM in assay [5]. Besides, the TGI in assay [6] was 32.4 µM; in assay [7], 34.6 µM; in assay [8], 29.8 µM; in assay [9], 29.6 µM.
Take `O=S(=O)(O)c1ccc(Nc2ccnc3cc(Cl)ccc23)cc1`: the TGI in assay [1], in assay [2], in [3], in [10], in [4] and in [5] was > 100 µM each time. The TGI in assay [6], in [7], in assay [8] and in assay [9] was > 100 µM in each case.
Turning to `O=C(NCCCCNCCCNC(=O)OCc1ccccc1)OCc1ccccc1`, the TGI in [1] is > 100 µM; in assay [2] it was 33.8 µM; in assay [3] it was > 100 µM; in assay [10] it was 37.7 µM; in assay [5] it was 71.2 µM; in assay [6] it was > 100 µM. Further, the TGI in assay [7] is 92.3 µM; in assay [8], > 100 µM; in assay [9], 37.1 µM.
As to `Cc1nnc(CC#N)n1NC(=O)CC#N`, the TGI in assay [1], in [2], in [3], in assay [10], in assay [4] and in [5] was > 100 µM in each case. Moreover, the TGI in assay [6], in assay [7], in assay [8] and in assay [9] was > 100 µM in each case.
With `CN(C)C=Nc1nncc2n[nH]nc12`, the TGI in assay [1], in assay [2], in assay [3], in assay [10], in assay [5] and in assay [6] was > 100 µM in each case. Also, the TGI in assay [7], in assay [8] and in [9] was > 100 µM each time.
Take `COC(=O)c1c(C#C[Si](C)(C)C)c(C#C[Si](C)(C)C)c(C#C[Si](C)(C)C)c(C#C[Si](C)(C)C)c1C(=O)OC`: the TGI in [1], in assay [2], in assay [3], in assay [10], in assay [5] and in [6] was > 100 µM throughout. Further, the TGI in [7], in [8] and in assay [9] was > 100 µM each time.
For `COC(=O)C[C@H](CCSC)NC(=O)C[C@H](CCSC)NC(=O)C[C@H](CCSC)NC(=O)OC(C)(C)C`, the TGI in [1], in [2], in assay [3], in [10], in [4] and in assay [5] was > 100 µM each time. Also, the TGI in assay [6] was > 100 µM; in [7], > 100 µM; in assay [8], 56 µM; in assay [9], 84.3 µM.
`CCOC(=O)N1C(=S)C(C(=O)OC)(C(=O)OC)N=C1C`: the TGI in assay [1], in assay [2], in [3], in [4], in assay [5] and in assay [6] was > 100 µM in each case. The TGI in [7], in assay [8] and in assay [9] was > 100 µM in each case.
Consider `O=c1c(-c2ccc(O)cc2)coc2cc(O)cc(O)c12`, for which the TGI in assay [1], in assay [2], in assay [3], in assay [10], in assay [5] and in assay [6] was > 100 µM in each case. For the same molecule, the TGI in assay [7], in assay [8] and in [9] was > 100 µM each time.
Turning to `CCOC(=O)c1cc(-c2ccn(C(C)=O)c2)c(-c2cc(C)co2)[nH]1`, the TGI in [1], in [2], in assay [3], in [4], in [5] and in assay [6] was > 100 µM each time. The TGI in assay [7], in assay [8] and in assay [9] was > 100 µM in each case.
Take `N#Cc1c(-c2ccc(Cl)cc2)cc(-c2nc3ccccc3[nH]2)nc1N`: the TGI came to 30.5 µM in [1]; 20.1 µM in assay [2]; 36.3 µM in assay [3]; 25.5 µM in [10]; 28 µM in [4]; 20.1 µM in assay [5]. The values for the TGI in [6], in assay [7] and in assay [9] were 27.5 µM, 35.1 µM and 21.2 µM, respectively.
With `Cn1c(=O)c2sc3cc4c(cc3c2c2ccccc21)sc1c(=O)n(C)c2ccccc2c14`, the TGI in assay [1] was 46.4 µM; in assay [2], > 100 µM; in [3] it was > 100 µM; in [10], > 100 µM; in [5], > 100 µM; in assay [6], > 100 µM. In addition, the figures for the TGI in assay [7], in assay [8] and in [9] were > 100 µM, 43.6 µM and > 100 µM, respectively.
As for `Cc1cc(C)c2c(c1)CC1(Cc3c(C)cc(C)cc3C1=O)C2=O` (centres undefined), the TGI in assay [1], in assay [2], in assay [3], in assay [4], in assay [5] and in [6] was > 100 µM throughout. For the same molecule, the TGI in assay [7], in assay [8] and in assay [9] was > 100 µM each time.
Consider `COc1ccc(N2C(=O)/C(=C/c3ccc(N(CCC#N)CCC#N)cc3)N=C2c2ccccc2)c(OC)c1`, for which the TGI in assay [1], in assay [2], in [3], in assay [10], in assay [5] and in [6] was > 100 µM throughout. The TGI in assay [7] was 60.3 µM; in [8], > 100 µM; in assay [9], > 100 µM.
For `CSC1NNC2(C(=O)N1)c1ccccc1-c1ccccc12` (centres undefined), the TGI in assay [1], in assay [2], in assay [3], in assay [10], in [4] and in [5] was > 10 µM each time. Also, the TGI in assay [6], in assay [7] and in assay [9] was > 10 µM throughout.
As to `COc1cc(S(=O)(=O)N/N=C/c2cc(Br)c(O)c(OC)c2)c(OC)cc1NC(C)=O`, the TGI in [1] was > 100 µM; in assay [2] it was 51.3 µM; in assay [3] it was > 100 µM; in [10], > 100 µM; in [4], > 100 µM; in assay [5] it was > 100 µM. Besides, the TGI in [6], in assay [7] and in assay [8] was > 100 µM in each case.
For the molecule `O=C(Nc1nc(C23CC4CC(CC(C4)C2)C3)cs1)c1cc2cc([N+](=O)[O-])ccc2oc1=O`, the TGI in [1] is 40.4 µM; in assay [2] it was > 100 µM; in [3], > 100 µM; in assay [10], > 100 µM; in [4], > 100 µM; in assay [5] it was > 100 µM. Also, the TGI in assay [6], in assay [7] and in [8] was > 100 µM in each case.
